Laboratory results: patent US6673937B2, “Syntheses and methods of use of new antimitotic agents” (The University of Pittsburgh, priority 2000, dated 2004)
Read-outs that look alike come from different tables or passages of the source. Each block holds one compound with its values, some of them ahead of it.

Key:
[1] = target: T1, Trx-1/TrxR (Homo sapiens, UniProt P10599+Q16881); settings: read-out: IC 50 as Trx-1/TrxR inhibitor; cited from earlier work
T1 sequence (P10599 1-105): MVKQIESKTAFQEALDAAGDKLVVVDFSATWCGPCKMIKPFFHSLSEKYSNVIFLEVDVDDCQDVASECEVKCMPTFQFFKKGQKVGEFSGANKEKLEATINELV
T1 sequence (Q16881 151-649 limits assumed): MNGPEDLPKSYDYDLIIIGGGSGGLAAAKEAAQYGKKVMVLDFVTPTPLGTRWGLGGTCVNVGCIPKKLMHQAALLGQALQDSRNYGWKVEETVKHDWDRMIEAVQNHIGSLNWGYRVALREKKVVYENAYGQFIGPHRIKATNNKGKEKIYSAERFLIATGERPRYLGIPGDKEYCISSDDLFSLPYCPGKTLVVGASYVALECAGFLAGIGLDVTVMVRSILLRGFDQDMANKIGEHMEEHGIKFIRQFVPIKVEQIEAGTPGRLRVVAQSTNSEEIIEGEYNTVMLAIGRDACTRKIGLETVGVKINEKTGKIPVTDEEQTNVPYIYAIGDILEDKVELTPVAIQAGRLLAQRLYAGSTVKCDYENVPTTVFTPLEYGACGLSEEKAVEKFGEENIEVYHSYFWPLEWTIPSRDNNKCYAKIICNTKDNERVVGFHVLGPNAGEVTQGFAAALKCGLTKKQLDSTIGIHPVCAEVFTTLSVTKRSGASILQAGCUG

[2] = system: 60 cell line panel; settings: read-out: average GI 50; cited from earlier work
[3] = target: VHR (Homo sapiens, UniProt P51452); experiment: In vitro inhibition of VHR; assay type: biochemical; settings: 30 μM, data not shown
Chain of VHR (P51452 whole entry, species assumed): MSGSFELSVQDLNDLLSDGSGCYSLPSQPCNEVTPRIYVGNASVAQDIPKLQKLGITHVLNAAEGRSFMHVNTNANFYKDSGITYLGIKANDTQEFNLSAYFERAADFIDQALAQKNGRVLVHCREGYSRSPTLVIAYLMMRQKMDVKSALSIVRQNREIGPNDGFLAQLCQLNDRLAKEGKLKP

[4] = target: T2, PTPIB (Homo sapiens, UniProt P18031); experiment: In vitro inhibition of PTPIB; assay type: biochemical; settings: 30 μM, data not shown
T2 sequence (P18031 1-435): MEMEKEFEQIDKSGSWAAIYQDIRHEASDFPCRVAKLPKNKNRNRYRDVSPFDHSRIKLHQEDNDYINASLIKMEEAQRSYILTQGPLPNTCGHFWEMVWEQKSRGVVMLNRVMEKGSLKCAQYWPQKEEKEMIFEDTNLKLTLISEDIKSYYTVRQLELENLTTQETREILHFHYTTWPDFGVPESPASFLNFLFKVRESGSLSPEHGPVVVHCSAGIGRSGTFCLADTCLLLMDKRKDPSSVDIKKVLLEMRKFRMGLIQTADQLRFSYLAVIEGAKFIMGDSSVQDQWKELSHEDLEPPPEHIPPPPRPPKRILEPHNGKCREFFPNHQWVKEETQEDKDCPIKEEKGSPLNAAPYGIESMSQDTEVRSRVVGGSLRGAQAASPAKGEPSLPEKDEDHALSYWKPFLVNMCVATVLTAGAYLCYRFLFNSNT

[5] = system: recombinant Cdc25; experiment: In vitro inhibition of recombinant Cdc25; assay type: biochemical; settings: 30 μM, data not shown
[6] = system: mouse embryonic fibroblasts transformed with SV40 large T antigen; experiment: Proliferation of SV40 transformed mouse embryonic fibroblasts; assay type: cell-based; settings: 10 μM
Procedure: Two compounds, 24 referred to herein as SR-4 and 27 referred to herein as SR-7, were examined in greater detail as to their effects on biological activity. The proliferation of MCF-7, MDA-MB-231 and SV40 transformed mouse embryonic fibroblasts was measured by a previously described colorimetric assay (Wipf P, Jung J-K, Rodriguez S, Lazo JS Synthesis and biological evaluation of Deoxypreussomerin A and Palmarumycin CP 1 and related naphthoquinone spiroketals. Tetrahedron 57:283-296, 2001 and Vogt A, Rice RL, Settineri CE, Yokokawa F, Yokokawa S, Wipf P and Lazo JS (1998) Disruption of insulin-like growth factor-I signaling and down-regulation of Cdc2 by SC-ααδ9, a novel small molecule antisignaling agent identified in a targeted array library. J Pharmacol Exptl Therap 287:806-813.). Briefly, the inventors seeded 4,000-6,000 cells per well in microtiter plates. Cells were allowed to attach overnight and treated with vehicle or compounds for 72 h, after which the medium was replaced with serum free medium containing 0.1% 3-[4,5-dimethylthiazol-2-yl]-2,5-diphenyl tetrazolium bromide. Plates were incubated for 3 hours in the dark and total cell number was determined by spectrophotometrically at 540 nm as previously described (Vogt A, Rice RL, Settineri CE, Yokokawa F, Yokokawa S, Wipf P and Lazo JS (1998) Disruption of insulin-like growth factor-1 signaling and down-regulation of Cdc2 by SC-ααδ9, a novel small molecule antisignaling agent identified in a targeted array library. J Pharmacol Exptl Therap 287:806-813.). […] Cells were maintained in RPMI 1640 medium containing 10% fetal bovine serum and the paclitaxel-resistant cells also contained 17 nM paclitaxel and 10 μM verapamil. […] The number of cells was determined spectrophotometrically at 490 nm minus absorbance at 630 nm after exposure to 3-(4,5-dimethylthiazol-2-yl)-5-(3-carboxymethoxyphenyl)-2-(4-sulfophenyl)-2H-tetrazolium and N-methyldibenzopyurazine methyl sulfate. […]

[7] = system: MDA-MB-231 cells; experiment: Antiproliferative assay, MDA-MB-231 cells; assay type: cell-based, human
From the text: MDA-MB-231 cells, which were also derived from an adenocarcinoma of the breast, are less differentiated than the MCF-7 cells and fail to express functional p53 or estrogen receptors. This class of tumor cells contains important targets for new therapies, because loss of estrogen receptor expression is associated with poor patient prognosis. (Osborne, C. K. Breast Cane. Res. Treatm. 1998, 51, 227).
The inventors extrapolated to determine the IC50 for compounds with little cytotoxicity at 30,μM, the highest concentration tested. […] The enhanced sensitivity of MCF-7 to these compounds may be due to the expression of p53 in these cells.
Two compounds, 24 referred to herein as SR-4 and 27 referred to herein as SR-7, were examined in greater detail as to their effects on biological activity. The proliferation of MCF-7, MDA-MB-231 and SV40 transformed mouse embryonic fibroblasts was measured by a previously described colorimetric assay (Wipf P, Jung J-K, Rodriguez S, Lazo JS Synthesis and biological evaluation of Deoxypreussomerin A and Palmarumycin CP 1 and related naphthoquinone spiroketals. Tetrahedron 57:283-296, 2001 and Vogt A, Rice RL, Settineri CE, Yokokawa F, Yokokawa S, Wipf P and Lazo JS (1998) Disruption of insulin-like growth factor-I signaling and down-regulation of Cdc2 by SC-ααδ9, a novel small molecule antisignaling agent identified in a targeted array library. J Pharmacol Exptl Therap 287:806-813.). Briefly, the inventors seeded 4,000-6,000 cells per well in microtiter plates. Cells were allowed to attach overnight and treated with vehicle or compounds for 72 h, after which the medium was replaced with serum free medium containing 0.1% 3-[4,5-dimethylthiazol-2-yl]-2,5-diphenyl tetrazolium bromide. Plates were incubated for 3 hours in the dark and total cell number was determined by spectrophotometrically at 540 nm as previously described (Vogt A, Rice RL, Settineri CE, Yokokawa F, Yokokawa S, Wipf P and Lazo JS (1998) Disruption of insulin-like growth factor-1 signaling and down-regulation of Cdc2 by SC-ααδ9, a novel small molecule antisignaling agent identified in a targeted array library. J Pharmacol Exptl Therap 287:806-813.). […] Cells were maintained in RPMI 1640 medium containing 10% fetal bovine serum and the paclitaxel-resistant cells also contained 17 nM paclitaxel and 10 μM verapamil. Cells were plated (2,000/well) in 96-well plates and allowed to attach and grow for 72 hours (paclitaxel and verapamil were removed from resistant cell medium two weeks prior to this plating). They were then treated with 0.5% DMSO vehicle control or 0.08-10 μM compound. The number of cells was determined spectrophotometrically at 490 nm minus absorbance at 630 nm after exposure to 3-(4,5-dimethylthiazol-2-yl)-5-(3-carboxymethoxyphenyl)-2-(4-sulfophenyl)-2H-tetrazolium and N-methyldibenzopyurazine methyl sulfate.
Because of the potential importance of the tumor suppressor gene p53 and the estrogen receptor in controlling the cellular response to cytotoxic agents, the inventors also examined the sensitivity of MDA-MB-231 cells, which lack functional p53 and estrogen receptors. […] As might be expected, these p53 and estrogen receptor deficient cells were generally less sensitive to both natural products and analogs when compared to MCF-7 cells.

[8] = target: T3, Trx-1/TrxR (Homo sapiens, UniProt P10599+Q16881); experiment: Trx-1/TrxR-dependent insulin reducing assay; assay type: biochemical; settings: calculated from 5 concentrations (0.1 to 50 μM)
T3 construct: Thioredoxin reductase was purified from human placenta as previously described; made in house
T3 sequence (P10599 1-105): T1 sequence (P10599 1-105)
T3 sequence (Q16881 1-499 isoform Q16881-5): T1 sequence (Q16881 151-649 limits assumed)
Procedure: Thioredoxin reductase was purified from human placenta as previously described (Oblong, J.E.; Gasdaska, P.Y.; Sherrill, K.; Powis,G. Biochemistry 1993, 32, 7271) and recombinant human Trx-1 was prepared as previously described (Gasdaska, P.Y.; Oblong, J.E.; Cotgreave, I.A.; Powis,G. Biochem.Biophys.Acta 1994 ,1218 ,292). TrxR and Trx-1/TrxR activities were measured spectrophotometrically using previously published microtiter plate colorimetric assays, based on the increase in absorbance at 405 nm which occurs as dithionitrobenzoic acid (DTNB) is reduced by the enzyme-mediated transfer of reducing equivalents from NADPH (Gasdaska et al., Biochem.Biophys.Acta 1994 ,1218,292). Trx-1/TrxR-dependent insulin reducing activity was measured in an incubation with a final volume of 60 μL containing 100 mM HEPES buffer, pH 7.2,5 mM EDTA (HE buffer),1 mM NADPH, […],0.8 μM Trx-1 and 2.5 mg/mL bovine insulin. Incubations were for 30 min at 37 ° C. in flat-bottom 96-well microtiter plates. The reaction was stopped by the addition of 100 μL of 6 M guanidine-HC1, 50 mM Tris, pH 8.0, and 10 mM DTNB, and the absorbance measured to 405 nm. TrxR activity was measured in a final incubation volume of 60 μL containing HE buffer, 10 mM DTNB, 1.0 μM TrxR and 1 mM NADPH. Compounds were diluted in HE buffer and added to the wells as 20 μL aliquots, and TrxR was then added,also as 20 μL aliquots in HE buffer. To start the reaction NADPH and DTNB were added as a 20 μL aliquot in HE buffer and the plate was moved to the plate reader which had been preheated to 37 ° C. The optical density at 405 nm was measured every 10 s and initial reaction rates were measured.

[9] = system: garden cress; settings: cited from earlier work
[10] = target: thioredoxin reductases (TrxR); settings: read-out: K; (thioredoxin reductase inhibition); cited from earlier work

SMILES: C[C@H]1CO[C@H]2C3=C(C(=O)C=CC3=O)[C@@H]3OC(=O)[C@H]4CC[C@@H]5[C@H]1CC[C@@]52[C@@H]43 [NSC401005]
IC50 [1]: 0.17 µM | GI50 [2]: 21.5 µM

inhibition of VHR activity [3]: no inhibition | inhibition of PTPIB activity [4]: no inhibition | IC50 ([7]; Homo sapiens, MDA-MB-231, 72 hours, read-out: MDA-MB-231 50% cell growth inhibition): 9.2 µM | IC50 [8]: > 50 µM
SMILES: CC/C=C/CCOc1cccc2c1C(=O)C=CC21Oc2cccc3cccc(c23)O1 [SR-4, (E)-8-(hex-3-enyloxy)-1-oxo-1,4-dihydronaphthalene-4-spiro-2′-naphto [1″,8″-de][1′,3′] dioxin]
inhibition of recombinant Cdc25 activity [5]: no inhibition | growth inhibition at highest concentration tested [6]: no significant inhibition | enhanced sensitivity of MDA-MB-231 cells compared to MCF-7 cells [7]: five fold enhanced sensitivity | sensitivity of MDA-MB-231 cells, in words ([7]; 72 hours, FIG. 23 Panel B): less active

SMILES: O=C1C=CC(=O)[C@@]23O[C@@]12C(=O)C(Cl)=CC31Oc2cccc3cccc(c23)O1 [palmarumycin C4]
germination and growth of garden cress [9]: completely inhibited germination and growth

SMILES: CC(=O)OC[C@H]1O[C@@H]([S-])[C@H](OC(C)=O)[C@@H](OC(C)=O)[C@@H]1OC(C)=O.CCP(CC)CC.[Au+] [auranofin]
Ki [10]: 0.004 µM

SMILES: O=C1C=CC(=O)C23OC12C(=O)C1OC1C31Oc2cccc3cccc(c23)O1 (stereo not shown) [palmarumycin C9]
germination and growth of garden cress [9]: completely inhibited germination and growth
